Test [1] can be described thus: Body weight and cecum weight at hatch after intraamniotic administration. As to conditions: for Average Body Weight / Average Cecum Weight: day 17, at hatch. It is filed as in vivo, Gallus gallus. How it is done: (§1) Cornish-cross fertile broiler eggs (Gallus gallus, n = 39) were obtained from a commercial hatchery (Moyer’s chicks, Quakertown, PA, USA). The eggs were incubated under optimal conditions at the Cornell University Animal Science Poultry Farm Incubator [18]. All animal protocols were approved by Cornell University Institutional Animal Care and Use committee (IACUC #2020-0077). At day 17 of embryonic incubation, eggs containing viable embryos were weighed and divided into 5 groups, with all treatment groups assigned eggs of similar weight frequency distribution. Each group was then injected with the specific solution (1 mL per egg) with a 21-gauge needle into the amniotic fluid. Treatments in powder form were separately diluted in DI H2O. Two treatment groups (1.25, 2.5 wt. %), two controls (H2O and non-injected), and a positive control (5 wt. % inulin) were administered. After injection, the injection holes were sealed with cellophane tape and the eggs were placed in hatching baskets such that each treatment was equally represented at each incubator location. Immediately upon hatch (day 21), blood was taken for hemoglobin determination and all chicks were then euthanized by CO2 exposure. The small intestine, pectoral muscle, cecum, and liver were collected, immediately frozen in liquid nitrogen, and then stored in a -80° C. freezer until analysis.

A short description of test [2]: Blood hemoglobin (QuantiChrom Hemoglobin Assay) at hatch after intraamniotic administration. It is filed as in vivo, Gallus gallus. As to conditions: for Average Hb: day 17, blood at hatch. On the procedure:
as §1, with “All animal protocols were approved by Cornell University Institutional Animal Care and Use committee (IACUC #2020-0077). At day 17 of embryonic incubation, eggs containing viable embryos were weighed and divided into 5 groups, with all treatment groups assigned eggs of similar weight frequency distribution.” left out, “Two treatment groups (1.25, 2.5 wt. %), two controls (H2O and non-injected), and a positive control (5 wt. % inulin) were administered.” left out
Blood was collected using micro-hematocrit heparinized capillary tubes (Fisher Scientific, Waltham, MA, USA). Blood Hb concentrations were determined spectrophotometrically using the QuantiChromTM Hemoglobin Assay (DIHB-250, BioAssay Systems, Hayward, CA, USA) following the kit manufacturer’s instructions.

Test [3] concerns cecal microbiota pathways. Briefly: Cecal 16S rRNA gene sequencing, LEfSe analysis. As to conditions: genistein treatment; cecal contents. It is filed as in vivo, Gallus gallus. How it is done:
as §1, with “analysis. […]” for “analysis.”

Another test relates to Hepcidin. Briefly: Liver gene expression by RT-qPCR: hepcidin. It is filed as in vivo, Gallus gallus. As to conditions: genistein exposure vs no injection, p < 0.05. On the procedure: Cornish-cross fertile broiler eggs (Gallus gallus, n = 39) were obtained from a commercial hatchery (Moyer’s chicks, Quakertown, PA, USA). The eggs were incubated under optimal conditions at the Cornell University Animal Science Poultry Farm Incubator [18]. All animal protocols were approved by Cornell University Institutional Animal Care and Use committee (IACUC #2020-0077). At day 17 of embryonic incubation, eggs containing viable embryos were weighed and divided into 5 groups, with all treatment groups assigned eggs of similar weight frequency distribution. Each group was then injected with the specific solution (1 mL per egg) with a 21-gauge needle into the amniotic fluid. Treatments in powder form were separately diluted in DI H2O. […]
Total RNA was extracted from 30 mg of the proximal duodenal (n=6) or liver tissues (n=6) using Qiagen RNeasy Mini Kit (Qiagen Inc., Valencia, CA) according to the manufacturer’s protocol. […] RNA was quantified by absorbance at 260-280 nm using a NanoDrop 2000 (ThermoFisher Scientific, Waltham, MA). […]
As previously described. cDNA was generated using a 20 uL reverse transcriptase (RT) reaction in a BioRad C1000 touch thermocycler using the Improm-II Reverse Transcriptase Kit (Catalog #A1250; Promega, Madison, WI, USA). […] Genomic DNA contamination was assessed using a RT-PCR assay for the reference of genes samples. […]

The test system of test [4] is gut bacterial populations. As to conditions: mice fed a high fat diet; cited from earlier work.
Setting [5] is: 1.25 wt. % genistein intraamniotic.
Where [6] appears, read: 2.5 wt. % genistein intraamniotic.

Marks after values point to notes of the source that are not given here.

For the molecule `O=c1c(-c2ccc(O)cc2)coc2cc(O)cc(O)c12` [Genistein, genistein], the “Average Body Weight” value is recorded as 45.83 ± 0.99 ^ab g in test [1] (setting [5]) and 47.69 ± 1.30 ^a g in test [1] (setting [6]). In addition, the results for the “Average Cecum Weight” value in test [1] (setting [5]) and in test [1] (setting [6]) were 0.50 ± 0.04 ^ab g and 0.44 ± 0.03 ^b g, respectively. Moreover, the “Body weight vs control” value in test [1] (2.5 wt. % genistein vs non-injected group, p < 0.05) is listed as “significantly higher”. Also, the “Cecum weight of no injection and H2O groups compared to treated group” value in test [1] (2.5 wt. % genistein, p < 0.05) is given as “significantly greater values”. Further, the entries for the “Average Hb” value in test [2] (setting [5]) and in test [2] (setting [6]) were 14.98 ± 0.45 ^a g/dL and 14.23 ± 0.79 ^ab g/dL, respectively. Also, the “Blood hemoglobin (Hb) levels vs controls” value in test [2] (1.25 wt. % genistein vs No Injection, H2O and 5 wt. % inulin, p < 0.05) was “significantly elevated”. In addition, the “Blood hemoglobin vs controls” value in test [2] (2.5 wt. % genistein vs H2O and 5 wt. % inulin) is “significantly higher”. The “Blood hemoglobin vs control” value in test [2] (2.5 wt. % genistein vs No Injection) was “higher”. In addition, the “Pathways associated with de novo synthesis of vitamin B12 (LEfSe)” value in test [3] is recorded as “enriched”. In addition, the “Gene expression of hepcidin” value in the test on Hepcidin is recorded as “significantly upregulated”. For the same molecule, in test [4], the “Gut bacterial populations associated with decreasing levels of lipopolysaccharide” value is “increased”.

These data come from US20230364051A1, “FORMULATIONS AND METHODS FOR IMPROVING AVIAN HEALTH” (CORNELL UNIVERSITY, priority 2022, published 2023).
